Laboratory results: patent US20260241012A1, “1,8-NAPHTHYRIDIN-2-ONE HETEROBIFUNCTIONAL BCL6 DEGRADERS” (Treeline Biosciences, Inc., priority 2022, published 2026)

Biological target: T1, N-terminal HiBiT tagged BCL6 (Homo sapiens, UniProt P41182)
T1 construct: expressed in transfected cells; host or cells: HT1080 (ATCC CCL-121), stably transduced with lentivirus pLV-UBC-N-HiBiT-BCL6-PGK-puro
Assay: HiBiT based degradation assay
Format: cell-based
Conditions: HT1080 cells expressing N-terminal HiBiT tagged BCL6, 5 hours of incubation; for Ymin (5 hr): BCL6 degradation normalized with DMSO control; for DC50: four-parameter logistic model, read-out: EC50 (5 hr)
How it was run: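 Degradation measured by luminescence from the Nano-Glo HiBiT lytic reagent (15 min, room temperature), normalized to DMSO controls and fitted to a four-parameter curve.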

| Ymin (5 hr) | DC50 [nM] | SMILES |
| --- | --- | --- |
| +++ (30% ≤ Ymin < 50%) | 10 to 100 | CNC(=O)COc1cc2cc(Nc3nc(N4CCN(CC5CCC6(CC5)CN(c5cccc7c(C8CCC(=O)NC8=O)nn(C)c57)C6)CC4)ncc3Cl)cnc2n(C)c1=O (stereo not shown) [Compound 149, 2-((6-((5-chloro-2-(4-((2-(3-(2,6-dioxopiperidin-3-yl)-1-methyl-1H-indazol-7-yl)-2-azaspiro[3.5]nonan-7-yl)methyl)piperazin-1-yl)pyrimidin-4-yl)amino)-1-methyl-2-oxo-1,2-dihydro-1,8-naphthyridin-3-yl)oxy)-N-methylacetamide] |
| +++ (30% ≤ Ymin < 50%) | < 10 | CNC(=O)COc1cc2cc(Nc3nc(N4CC[C@@H](CN5CCN(c6ccc7c(C8CCC(=O)NC8=O)nn(C)c7c6)CC5)C4)ncc3Cl)cnc2n(C(C)C)c1=O (stereo partly drawn) [Compound 218a, 2-[[6-[[5-chloro-2-[(3S)-3-[[4-[3-(2,6-dioxo-3-piperidyl)-1-methyl-indazol-6-yl]piperazin-1-yl]methyl]pyrrolidin-1-yl]pyrimidin-4-yl]amino]-1-isopropyl-2-oxo-1,8-naphthyridin-3-yl]oxy]-N-methyl-acetamide] |
| +++ (30% ≤ Ymin < 50%) | < 10 | CNC(=O)COc1cc2cc(Nc3nc(N4CC5(CC[C@H](Nc6cccc7c(C8CCC(=O)NC8=O)nn(C)c67)[C@H](C)C5)C4)ncc3Cl)cnc2n(C)c1=O (relative stereo) [Compound 159a, 2-((6-((5-chloro-2-((6R,7S)-7-((3-(2,6-dioxopiperidin-3-yl)-1-methyl-1H-indazol-7-yl)amino)-6-methyl-2-azaspiro[3.5]nonan-2-yl)pyrimidin-4-yl)amino)-1-methyl-2-oxo-1,2-dihydro-1,8-naphthyridin-3-yl)oxy)-N-methylacetamide] |
| ++++ (Ymin < 30%) | < 10 | CNC(=O)COc1cc2cc(Nc3nc(N4CCC(CN5CCN(c6cccc7c(C8CCC(=O)NC8=O)nn(C)c67)CC5)CC4)ncc3Cl)cnc2n(C)c1=O (stereo not shown) [Compound 132, 2-((6-((5-chloro-2-(4-((4-(3-(2,6-dioxopiperidin-3-yl)-1-methyl-1H-indazol-7-yl)piperazin-1-yl)methyl)piperidin-1-yl)pyrimidin-4-yl)amino)-1-methyl-2-oxo-1,2-dihydro-1,8-naphthyridin-3-yl)oxy)-N-methylacetamide] |
| +++ (30% ≤ Ymin < 50%) | < 10 | CNC(=O)COc1cc2cc(Nc3nc(N4CCN(CC5CCN(c6ccc7c(C8CCC(=O)NC8=O)nn(C)c7c6)CC5)CC4)ncc3F)cnc2n(C)c1=O (stereo not shown) [Compound 134, 2-((6-((2-(4-((1-(3-(2,6-dioxopiperidin-3-yl)-1-methyl-1H-indazol-6-yl)piperidin-4-yl)methyl)piperazin-1-yl)-5-fluoropyrimidin-4-yl)amino)-1-methyl-2-oxo-1,2-dihydro-1,8-naphthyridin-3-yl)oxy)-N-methylacetamide] |
| ++++ (Ymin < 30%) | < 10 | CNC(=O)COc1cc2cc(Nc3nc(N4CCC(O)(CN5CCC(c6cccc7c(C8CCC(=O)NC8=O)nn(C)c67)CC5)CC4)ncc3Cl)cnc2n(C(C)C)c1=O (stereo not shown) [Compound 203, 2-[[6-[[5-chloro-2-[4-[[4-[3-(2,6-dioxo-3-piperidyl)-1-methyl-indazol-7-yl]-1-piperidyl]methyl]-4-hydroxy-1-piperidyl]pyrimidin-4-yl]amino]-1-isopropyl-2-oxo-1,8-naphthyridin-3-yl]oxy]-N-methyl-acetamide] |
| ++++ (Ymin < 30%) | 10 to 100 | CNC(=O)COc1cc2cc(Nc3nc(N4CCC(F)(CN5CCC(c6cccc7c(C8CCC(=O)NC8=O)nn(C)c67)CC5)CC4)ncc3Cl)cnc2n(C(C)C)c1=O (stereo not shown) [Compound 161, 2-((6-((5-chloro-2-(4-((4-(3-(2,6-dioxopiperidin-3-yl)-1-methyl-1H-indazol-7-yl)piperidin-1-yl)methyl)-4-fluoropiperidin-1-yl)pyrimidin-4-yl)amino)-1-isopropyl-2-oxo-1,2-dihydro-1,8-naphthyridin-3-yl)oxy)-N-methylacetamide] |
| +++ (30% ≤ Ymin < 50%) | 10 to 100 | CNC(=O)COc1cc2cc(Nc3nc(N4CCC(CN5CCN(c6ccc7c(C8CCC(=O)NC8=O)nn(C)c7c6)C[C@@H]5C)CC4)ncc3Cl)cnc2n(C(C)C)c1=O (stereo partly drawn) [Compound 215b, 2-((6-((5-chloro-2-(4-(((2S)-4-(3-(2,6-dioxopiperidin-3-yl)-1-methyl-1H-indazol-6-yl)-2-methylpiperazin-1-yl)methyl)piperidin-1-yl)pyrimidin-4-yl)amino)-1-isopropyl-2-oxo-1,2-dihydro-1,8-naphthyridin-3-yl)oxy)-N-methylacetamide] |
| +++ (30% ≤ Ymin < 50%) | < 10 | CNC(=O)COc1cc2cc(Nc3nc(N4CC[C@H](CN5CCN(c6ccc7c(C8CCC(=O)NC8=O)nn(C)c7c6)CC5)C4)ncc3Cl)cnc2n(C(C)C)c1=O (stereo partly drawn) [Compound 218b, 2-[[6-[[5-chloro-2-[(3R)-3-[[4-[3-(2,6-dioxo-3-piperidyl)-1-methyl-indazol-6-yl]piperazin-1-yl]methyl]pyrrolidin-1-yl]pyrimidin-4-yl]amino]-1-isopropyl-2-oxo-1,8-naphthyridin-3-yl]oxy]-N-methyl-acetamide] |
| ++++ (Ymin < 30%) | 10 to 100 | CNC(=O)COc1cc2cc(Nc3nc(N4CCN(CC5CCN(c6cccc7c6C(=O)N(C6CCC(=O)NC6=O)C7=O)CC5)CC4)ncc3Cl)cnc2n(C)c1=O (stereo not shown) [Compound 102, 2-((6-((5-chloro-2-(4-((1-(2-(2,6-dioxopiperidin-3-yl)-1,3-dioxoisoindolin-4-yl)piperidin-4-yl)methyl)piperazin-1-yl)pyrimidin-4-yl)amino)-1-methyl-2-oxo-1,2-dihydro-1,8-naphthyridin-3-yl)oxy)-N-methylacetamide] |
| +++ (30% ≤ Ymin < 50%) | < 10 | CNC(=O)COc1cc2cc(Nc3nc(N4CCN(C[C@@H]5CCN(c6ccc7c(C8CCC(=O)NC8=O)nn(C)c7c6)C5)CC4)ncc3Cl)cnc2n(C(C)C)c1=O (stereo partly drawn) [Compound 228a, 2-[[6-[[5-chloro-2-[4-[[(3S)-1-[3-(2,6-dioxo-3-piperidyl)-1-methyl-indazol-6-yl]pyrrolidin-3-yl]methyl]piperazin-1-yl]pyrimidin-4-yl]amino]-1-isopropyl-2-oxo-1,8-naphthyridin-3-yl]oxy]-N-methyl-acetamide] |
| ++++ (Ymin < 30%) | < 10 | CNC(=O)COc1cc2cc(Nc3nc(N4CC[C@@H](CNc5ccc6c(C7CCC(=O)NC7=O)nn(C)c6c5)C4)ncc3Cl)cnc2n(C)c1=O (stereo partly drawn) [Compound 123b, 2-((6-((5-chloro-2-((3S)-3-(((3-(2,6-dioxopiperidin-3-yl)-1-methyl-1H-indazol-6-yl)amino)methyl)pyrrolidin-1-yl)pyrimidin-4-yl)amino)-1-methyl-2-oxo-1,2-dihydro-1,8-naphthyridin-3-yl)oxy)-N-methylacetamide] |
| +++ (30% ≤ Ymin < 50%) | 10 to 100 | CNC(=O)COc1cc2cc(Nc3nc(N4CCC(CN5[C@H](C)CN(c6cccc7c(C8CCC(=O)NC8=O)nn(C)c67)C[C@@H]5C)CC4)ncc3Cl)cnc2n(C(C)C)c1=O (stereo partly drawn) [Compound 197a, 2-[[6-[[5-chloro-2-[4-[[(2R,6S)-4-[3-(2,6-dioxo-3-piperidyl)-1-methyl-indazol-7-yl]-2,6-dimethyl-piperazin-1-yl]methyl]-1-piperidyl]pyrimidin-4-yl]amino]-1-isopropyl-2-oxo-1,8-naphthyridin-3-yl]oxy]-N-methyl-acetamide] |
| ++++ (Ymin < 30%) | < 10 | CNC(=O)COc1cc2cc(Nc3nc(N4CCC(Oc5ccc6c(C7CCC(=O)NC7=O)nn(C)c6c5)CC4)ncc3Cl)cnc2n(C)c1=O (stereo not shown) [Compound 147, 2-((6-((5-chloro-2-(4-((3-(2,6-dioxopiperidin-3-yl)-1-methyl-1H-indazol-6-yl)oxy)piperidin-1-yl)pyrimidin-4-yl)amino)-1-methyl-2-oxo-1,2-dihydro-1,8-naphthyridin-3-yl)oxy)-N-methylacetamide] |
| ++++ (Ymin < 30%) | 10 to 100 | CNC(=O)COc1cc2cc(Nc3nc(N4CCC(CN5[C@@H](C)CN(c6cccc7c(C8CCC(=O)NC8=O)nn(C)c67)C[C@@H]5C)CC4)ncc3Cl)cnc2n(C(C)C)c1=O (stereo partly drawn) [Compound 197b, 2-[[6-[[5-chloro-2-[4-[[(2S,6S)-4-[3-(2,6-dioxo-3-piperidyl)-1-methyl-indazol-7-yl]-2,6-dimethyl-piperazin-1-yl]methyl]-1-piperidyl]pyrimidin-4-yl]amino]-1-isopropyl-2-oxo-1,8-naphthyridin-3-yl]oxy]-N-methyl-acetamide] |
| ++ (50% ≤ Ymin < 70%) | < 10 | CNC(=O)COc1cc2cc(Nc3nc(N4CCN(c5ccc6c(C7CCC(=O)NC7=O)nn(C)c6c5)CC4)ncc3Cl)cnc2n(C(C)C)c1=O (stereo not shown) [Compound 165, 2-[[6-[[5-chloro-2-[4-[3-(2,6-dioxo-3-piperidyl)-1-methyl-indazol-6-yl]piperazin-1-yl]pyrimidin-4-yl]amino]-1-isopropyl-2-oxo-1,8-naphthyridin-3-yl]oxy]-N-methyl-acetamide] |

| SMILES | Ymin (5 hr) | DC50 [nM] |
| --- | --- | --- |
| CNC(=O)COc1cc2cc(Nc3nc(N4CCC(CN5C6CC5CN(c5cccc7c(C8CCC(=O)NC8=O)nn(C)c57)C6)CC4)ncc3Cl)cnc2n(C(C)C)c1=O (stereo not shown) [Compound 209, 2-[[6-[[5-chloro-2-[4-[[3-[3-(2,6-dioxo-3-piperidyl)-1-methyl-indazol-7-yl]-3,6-diazabicyclo[3.1.1]heptan-6-yl]methyl]-1-piperidyl]pyrimidin-4-yl]amino]-1-isopropyl-2-oxo-1,8-naphthyridin-3-yl]oxy]-N-methyl-acetamide] | +++ (30% ≤ Ymin < 50%) | < 10 |
